Results: patent publication US10537575B2, “Phosphodiesterase inhibitors to repair brain and/or retinal injury in human newborns” (priority 2016, dated 2020)

Tests used:
[1] = tested on: Long-Evans rat pups (neonatal HI); experiment: White matter myelination, oligodendrocytes and neuroinflammation after neonatal HI; assay type: in vivo; settings: P30
Description: Neonatal HI was induced in male Long-Evans rat pups at postnatal day 10 (P10) by left common carotid ligation followed by 2-hour exposure to 8% oxygen. Sham operated rat pups served as control. […] At P30, rats were sacrificed and their brains extracted. Hematoxylin and eosin staining was performed to analyze the structure of the myelin sheath. Olig2 and CC-1 immunostaining were performed to assess the proportion of mature oligodendrocyte to total oligodendrocytes. GFAP, Iba1, and Mac2 immunostaining was used to label reactive astrocytes and activated microglia. Collagen IV was used to investigate microvessels. Corpus callosum and left external capsule were the 2 regions where these markers were assessed to evaluate “white matter”.

[2] = tested on: Long-Evans rat pups (neonatal HI); experiment: Retinal immunohistochemistry after neonatal HI; assay type: in vivo; settings: sildenafil 2, 10 or 50 mg/kg 7 days, P30
Excerpt: Neonatal hypoxia-ischemia (HI) was induced in male Long-Evans rat pups at postnatal day 10 (P10) by left common carotid ligation followed by 2-hour exposure to 8% oxygen. […] At P30, rats were sacrificed and their eyes were extracted.

[3] = tested on: Long-Evans rat pups (term neonatal HIE model); experiment: Brain structure, hematoxylin and eosin coronal sections at P30; settings: HI
Description: A well-established Vannucci rat model of term neonatal HIE, which combined a left common carotid artery ligation and a 2 hour exposure to hypoxia (8% oxygen) in 10-day-old (P10) rat pups, was used for the experiments, since this model is generally recognized to mimic the brain injuries observed in human term asphyxiated newborns. Briefly, the 10-day-old male Long-Evans rat pups were weighed and then deeply anesthetized with an intraperitoneal injection of fentanyl (0.2 mg/kg) and midazolam (1 mg/kg) to the point of unresponsiveness to noxious stimulation. Lidocaine-prilocaine cream (EMLA®; AstraZeneca Inc.) was applied to the ventral neck skin 30 minutes before surgery. The skin was cleaned with 2% chlorhexidine solution followed by 70% alcohol. A vertical incision was made along the ventral surface of the neck. The left common carotid artery was located, isolated, and then ligated with a single tight suture. Following the unilateral ligation, the skin incision was closed with an adhesive (n-butyl cyanoacrylate; 3 M VetBond Tissue Adhesive®; 3 M USA). The anesthesia was reversed with an intraperitoneal injection of naloxone (0.1 mg/kg) and flumazenil (1 mg/kg). […] For each rat pup, anesthesia time and surgical time were kept to a minimal time of less than 5-10 minutes. The pups were allowed to recover for approximately 1.5 h after surgery and then were placed in a sealed hypoxia chamber (Plastic Concepts, North Billerica, USA). The sealed chamber was infused with nitrogen until a level of 8% oxygen was reached, which was maintained for 2 h (oxygen analyzer model 600, Engineered Systems & Designs, Newark, Del.). The pups were allowed to recover for 30 minutes and then were returned to their cages with the mother. The rats undergoing the whole procedure were considered as the hypoxic-ischemic (HI) group (n=10-12 animals/groups). Sham operated rat pups (identical procedure as the HI group, but not the ligation and hypoxia) served as the control group (n=10-12 animals/groups). […]

PDE6 = settings: known; cited from earlier work
[4] = tested on: Long-Evans rat pups (term neonatal HIE model); experiment: Microvessel density (collagen IV staining) at P30; assay type: in vivo; settings: HI, sildenafil 50 mg/kg, p<0.01
Description: In addition, using the fourth slide prepared for each animal, an immunohistochemistry with collagen IV staining also was used to assess microvessel density. Sections were labeled with an anti-collagen type IV antibody (EMD Millipore: AB769, Temecula, Calif., USA) (dilution 1:400, incubation time overnight at room temperature) (Tong X K et al., 2005). Then, these sections were incubated with the secondary antibody CyTM3-conjugated AffiniPure donkey anti-goat IgG (Cedarlane: 705-165-147, West Grove, Pa., USA) (dilution 1:400, incubation time 1 hour at room temperature). These sections were rinsed with tris-buffered saline and cover slipped with Vectashield Mounting media containing 4,6-diamidino-2-phenylindole (DAPI) (Vector Laboratories: H1200, Burlingame, Calif., USA) to visualize cell nuclei. To estimate microvessel density, single-layer immunoreactive blood vessels in all orientations were counted as individual microvessels. Collagen IV staining in large vessels with tunica media were disregarded in the microvessel counts (Hallene K L et al., 2006, Iwai M et al., 2007; Noguchi T et al., 2008; Rigau V et al., 2007; Wintermark P et al., 2013; Shaikh H et al., 2015). […] One investigator took pictures of the respective fields of view at 10× magnification.

## CCCc1nn(C)c2c(=O)[nH]c(-c3cc(S(=O)(=O)N4CCN(C)CC4)ccc3OCC)nc12 [sildenafil]
[1]; HI, all dosage
  myelin sheath thickness in corpus callosum and left external capsule: reverted the myelin sheath thickness back to levels comparable to sham vehicle rat animals
[1]
  microvessel density in the white matter: no changes
[1]; after sildenafil
  number of total and mature oligodendrocytes in the left external capsule: no changes
[1]; higher doses of sildenafil
  reactive astrocytosis and microgliosis in the corpus callosum and left external capsule: significant reduction
[1]; sildenafil 50 mg/kg
  number of mature oligodendrocytes in the corpus callosum: significantly increased
  number of total oligodendrocytes in the corpus callosum: significantly increased
[2]
  neuroinflammation, number of astrocytes in retina: decreasing the number of astrocytes
  number of retinal ganglion cells and bipolar cells: restored the number of retinal ganglion cells and bipolar cells
[3]; high-dose sildenafil, not different from sham vehicle
  total brain size, median (IQR): 93.05 (91.53; 93.95)
[3]; low-dose sildenafil, p<0.05 vs sham vehicle
  total brain size, median (IQR): 92.19 (81.51; 97.58)
[3]; medium-dose sildenafil, not different from sham vehicle
  total brain size, median (IQR): 94.05 (84.4; 95.0)
PDE6
  PDE6 inhibition: inhibits PDE6, but with a reduced efficiency
[4]
  microvessel density near the infarct boundary zone, median (IQR): 211 (182; 221)
